In this test the target is CXCR3 (Macaca fascicularis, UniProt A0A2K5UV19). The test is described as follows: functional cellular assay measuring calcium flux in CXCR3 transfected cells (block of CXCR3/IP-10 interaction). Format: cell-based, Cyno. As to conditions: IP-10 induced intracellular calcium flux; Cyno-CHO cells stably expressing recombinant CXCR3 and G-alpha-16; IP-10 at EC80; read-out: IC50. A digest of the protocol:
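Cyno-CHO cells stably expressing CXCR3 and G-alpha-16, loaded with Ca-4 dye in HBSS/10 mM HEPES pH 7.4 with 2 mM probenecid for 1 h at 37° C. Compound (final 10 microM) preincubated 15 min at room temperature, then IP-10 at EC80 added; calcium flux read at 480/540 nm.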
Chain of CXCR3 (A0A2K5UV19 entry or part of it): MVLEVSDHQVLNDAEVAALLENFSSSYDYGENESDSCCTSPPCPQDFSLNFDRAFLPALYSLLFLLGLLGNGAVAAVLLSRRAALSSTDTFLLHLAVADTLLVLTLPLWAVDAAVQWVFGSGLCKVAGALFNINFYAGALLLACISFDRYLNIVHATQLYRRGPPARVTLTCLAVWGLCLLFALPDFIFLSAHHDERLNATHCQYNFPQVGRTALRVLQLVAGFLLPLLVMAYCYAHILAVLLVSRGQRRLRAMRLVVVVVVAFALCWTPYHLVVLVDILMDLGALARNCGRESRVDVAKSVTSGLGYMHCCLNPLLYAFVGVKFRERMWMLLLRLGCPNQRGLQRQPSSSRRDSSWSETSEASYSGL
Broadly, the IC50 is the midpoint of a concentration-inhibition curve. As for `CSc1ncc(-c2cc(C(F)(F)F)ccc2N2CCN(C(=O)Cn3ccc4cccnc43)CC2)cn1` [1-{4-[2-(2-Methylsulfanyl-pyrimidin-5-yl)-4-trifluoromethyl-phenyl]-piperazin-1-yl}-2-pyrrolo[2,3-b]pyridin-1-yl-ethanone], the 50% inhibitory concentration (IC50) was found to be 9 nM. On to `O=C(Cn1ccc2cccnc21)N1CCN(c2ccccc2-c2cnc(N3CCCC3)nc2)CC1` [1-{4-[2-(2-Pyrrolidin-1-yl-pyrimidin-5-yl)-phenyl]-piperazin-1-yl}-2-pyrrolo[2,3-b]pyridin-1-yl-ethanone], for which the 50% inhibitory concentration (IC50) worked out at 9 nM. The figure for `O=C(CN1Cc2ccccc2C1=O)N1CCN(c2ccc(F)cc2-c2cnc(N3CCC(O)CC3)nc2)CC1` [2-[2-(4-{4-fluoro-2-[2-(4-hydroxypiperidin-1-yl)pyrimidin-5-yl]phenyl}piperazin-1-yl)-2-oxoethyl]-2,3-dihydro-1H-isoindol-1-one] is 9 nM; for `COc1ncc(-c2cc(C(F)(F)F)ccc2N2CCN(C(=O)Cn3ccc4cccnc43)CC2)cn1` [1-{4-[2-(2-Methoxy-pyrimidin-5-yl)-4-trifluoromethyl-phenyl]-piperazin-1-yl}-2-pyrrolo[2,3-b]pyridin-1-yl-ethanone] it is 8 nM; for `CC1CN(c2ccccc2-c2cnc(N3CCOCC3)nc2)CCN1C(=O)Cn1ccc2cccnc21` (stereo not drawn) [1-{2-Methyl-4-[2-(2-morpholin-4-yl-pyrimidin-5-yl)-phenyl]-piperazin-1-yl}-2-pyrrolo[2,3-b]pyridin-1-yl-ethanone] it is 13 nM. Turning to `Cc1cc(C)n(CC(=O)N2CCN(c3ccccc3-c3cnc(N4C[C@@H]5C[C@H]4CO5)nc3)CC2)n1` [2-(3,5-Dimethyl-pyrazol-1-yl)-1-(4-{2-[(1S,4S)-2-(2-oxa-5-aza-bicyclo[2.2.1]hept-5-yl)-pyrimidin-5-yl]-phenyl}-piperazin-1-yl)-ethanone], the concentration for half-maximal inhibition (IC50) was 14 nM. As to `CN1CCN(c2ncc(-c3cc(F)ccc3N3CCN(C(=O)CN4CCCCC4=O)CC3)cn2)CC1` [1-[2-(4-{4-fluoro-2-[2-(4-methylpiperazin-1-yl)pyrimidin-5-yl]phenyl}piperazin-1-yl)-2-oxoethyl]piperidin-2-one], the IC50 was found to be 94 nM. With `CS(=O)(=O)C1CCN(c2ncc(-c3cc(F)ccc3N3CCN(C(=O)Cn4ccc5ccncc54)CC3)cn2)CC1` [1-[4-(4-fluoro-2-{2-[4-(methylsulfonyl)piperidin-1-yl]pyrimidin-5-yl}phenyl)piperazin-1-yl]-2-(1H-pyrrolo[2,3-c]pyridin-1-yl)ethanone] the figure was 8 nM. The figure for `CNc1ncc(-c2cc(C(F)(F)F)ccc2N2CCN(C(=O)Cn3nc(C)cc3C)CC2)cn1` [2-(3,5-Dimethyl-pyrazol-1-yl)-1-{4-[2-(2-methylamino-pyrimidin-5-yl)-4-trifluoromethyl-phenyl]-piperazin-1-yl}-ethanone] is 7 nM; for `Cc1cc(C)n(CC(=O)N2CCN(c3ccc(F)cc3-c3cnc(N4CCN(C)CC4)nc3)CC2)n1` [2-(3,5-dimethyl-1H-pyrazol-1-yl)-1-(4-{4-fluoro-2-[2-(4-methylpiperazin-1-yl)pyrimidin-5-yl]phenyl}piperazin-1-yl)ethanone] it is 40 nM; for `COc1ncc(-c2ccccc2N2CCN(C(=O)Cn3cnc4cccnc43)CC2)cn1` [2-Imidazo[4,5-b]pyridin-3-yl-1-{4-[2-(2-methoxy-pyrimidin-5-yl)-phenyl]-piperazin-1-yl}-ethanone] it is 15 nM. On to `Cc1cc(C)n(CC(=O)N2CCN(c3ccccc3-c3cnc(N4CCCOCC4)nc3)CC2)n1` [2-(3,5-Dimethyl-pyrazol-1-yl)-1-{4-[2-(2-[1,4]oxazepan-4-yl-pyrimidin-5-yl)-phenyl]-piperazin-1-yl}-ethanone], for which the half-maximal inhibitory concentration (IC50) stood at 11 nM. The figure for `CNc1ncc(-c2cc(Cl)ccc2N2CCN(C(=O)Cn3nc(C)cc3C)CC2)cn1` [1-{4-[4-Chloro-2-(2-methylamino-pyrimidin-5-yl)-phenyl]-piperazin-1-yl}-2-(3,5-dimethyl-pyrazol-1-yl)-ethanone] is 13 nM; for `O=C(Cn1ccc2cccnc21)N1CCN(c2c(F)cccc2-c2cnc(N3CCOCC3)nc2)CC1` [1-{4-[2-Fluoro-6-(2-morpholin-4-yl-pyrimidin-5-yl)-phenyl]-piperazin-1-yl}-2-pyrrolo[2,3-b]pyridin-1-yl-ethanone] it is 27 nM; for `COc1ncc(-c2cc(C#N)ccc2N2CCN(C(=O)Cn3nc(C)cc3C)CC2)cn1` [4-{4-[2-(3,5-Dimethyl-pyrazol-1-yl)-acetyl]-piperazin-1-yl}-3-(2-methoxy-pyrimidin-5-yl)-benzonitrile] it is 150 nM. As for `Cc1cc(C)n(CC(=O)N2CCN(c3ccccc3-c3cnc(N4CCC(F)CC4)nc3)CC2)n1` [2-(3,5-Dimethyl-pyrazol-1-yl)-1-(4-{2-[2-(4-fluoro-piperidin-1-yl)-pyrimidin-5-yl]-phenyl}-piperazin-1-yl)-ethanone], the half-maximal inhibitory concentration (IC50) turned out to be 10 nM. With `O=C(Cn1ccc2cccnc21)N1CCN(c2ccc(F)cc2-c2cnc(N3CCOCC3)nc2)CC1` [1-(4-{4-fluoro-2-[2-(morpholin-4-yl)pyrimidin-5-yl]phenyl}piperazin-1-yl)-2-(1H-pyrrolo[2,3-b]pyridin-1-yl)ethanone] the figure was 14 nM.

Turning to `Cc1cc(C)n(CC(=O)N2CCN(c3ccc(F)cc3-c3cnc(S(C)(=O)=O)nc3)CC2C)n1` (stereo not drawn) [2-(3,5-dimethyl-1H-pyrazol-1-yl)-1-(4-{4-fluoro-2-[2-(methylsulfonyl)pyrimidin-5-yl]phenyl}-2-methylpiperazin-1-yl)ethanone], the IC50 turned out to be 157 nM. Consider `CC1CN(c2ccccc2-c2cnc(N3CCC(S(C)(=O)=O)CC3)nc2)CCN1C(=O)Cn1c(=O)[nH]c2ccccc21` (stereo not drawn) [1-{2-[2-methyl-4-(2-{2-[4-(methylsulfonyl)piperidin-1-yl]pyrimidin-5-yl}phenyl)piperazin-1-yl]-2-oxoethyl}-1,3-dihydro-2H-benzimidazol-2-one], for which the concentration for half-maximal inhibition (IC50) worked out at 11 nM. With `O=C(Cn1c(=O)[nH]c2ccccc21)N1CCN(c2ccc(F)cc2-c2cnc(N3CCOCC3)nc2)CC1` [1-[2-(4-{4-fluoro-2-[2-(morpholin-4-yl)pyrimidin-5-yl]phenyl}piperazin-1-yl)-2-oxoethyl]-1,3-dihydro-2H-benzimidazol-2-one], the IC50 was determined as 11 nM. `COC[C@@H]1CCCN1c1ncc(-c2ccccc2N2CCN(C(=O)Cn3nc(C)cc3C)CC2)cn1` [2-(3,5-Dimethyl-pyrazol-1-yl)-1-(4-{2-[2-((S)-2-methoxymethyl-pyrrolidin-1-yl)-pyrimidin-5-yl]-phenyl}-piperazin-1-yl)-ethanone]: the half-inhibitory concentration (IC50) amounted to 12 nM. The figure for `CS(=O)(=O)C1CCN(c2ncc(-c3cc(F)ccc3N3CCN(C(=O)CN4CCCCC4=O)CC3)cn2)CC1` [1-{2-[4-(4-fluoro-2-{2-[4-(methylsulfonyl)piperidin-1-yl]pyrimidin-5-yl}phenyl)piperazin-1-yl]-2-oxoethyl}piperidin-2-one] is 15 nM. With `Cc1ccc(-c2ccccc2N2CCN(C(=O)Cn3nc(C)cc3C)CC2)cc1` [2-(3,5-Dimethyl-pyrazol-1-yl)-1-[4-(4′-methyl-biphenyl-2-yl)-piperazin-1-yl]-ethanone] the figure was 70 nM.

On to `O=C(Cn1ccc2ccncc21)N1CCN(c2ccc(F)cc2-c2cnc(N3CCOCC3)nc2)CC1` [1-(4-{4-fluoro-2-[2-(morpholin-4-yl)pyrimidin-5-yl]phenyl}piperazin-1-yl)-2-(1H-pyrrolo[2,3-c]pyridin-1-yl)ethanone], for which the IC50 was found to be 13 nM.

These data come from patent US8450317B2, “CXCR3 receptor antagonists” (Boehringer Ingelheim International GmbH, priority 2009, dated 2013).
